The text below walks through data of US20260116868A1 (Arcus Biosciences, Inc., priority 2023, published 2026).

By IC50 is commonly meant the concentration at which inhibition is half-maximal. A low value points to inhibition by little substance.

This experiment concerns the target T1, Cbl-b (Homo sapiens, UniProt Q13191).
T1 construct: biotin (biotinylated protein)
Put plainly: Cbl-b probe displacement HTRF binding assay. The following applies: 0.4 nM Cbl-b, 150 nM BODIPY probe. Put shortly: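 Compound competes with BODIPY probe (150 nM) for biotinylated Cbl-b (0.4 nM) in HEPES/NaCl/Triton/TCEP/BSA buffer; 60 min preincubation, 15 min with probe, room temperature. Tb-streptavidin HTRF read; % displacement vs DMSO and no-protein controls, IC50 from four-parameter fit.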
(In general: Time-resolved FRET reads energy transfer from a long-lived donor to a nearby acceptor.)

T1 sequence (Q13191 whole entry, species assumed): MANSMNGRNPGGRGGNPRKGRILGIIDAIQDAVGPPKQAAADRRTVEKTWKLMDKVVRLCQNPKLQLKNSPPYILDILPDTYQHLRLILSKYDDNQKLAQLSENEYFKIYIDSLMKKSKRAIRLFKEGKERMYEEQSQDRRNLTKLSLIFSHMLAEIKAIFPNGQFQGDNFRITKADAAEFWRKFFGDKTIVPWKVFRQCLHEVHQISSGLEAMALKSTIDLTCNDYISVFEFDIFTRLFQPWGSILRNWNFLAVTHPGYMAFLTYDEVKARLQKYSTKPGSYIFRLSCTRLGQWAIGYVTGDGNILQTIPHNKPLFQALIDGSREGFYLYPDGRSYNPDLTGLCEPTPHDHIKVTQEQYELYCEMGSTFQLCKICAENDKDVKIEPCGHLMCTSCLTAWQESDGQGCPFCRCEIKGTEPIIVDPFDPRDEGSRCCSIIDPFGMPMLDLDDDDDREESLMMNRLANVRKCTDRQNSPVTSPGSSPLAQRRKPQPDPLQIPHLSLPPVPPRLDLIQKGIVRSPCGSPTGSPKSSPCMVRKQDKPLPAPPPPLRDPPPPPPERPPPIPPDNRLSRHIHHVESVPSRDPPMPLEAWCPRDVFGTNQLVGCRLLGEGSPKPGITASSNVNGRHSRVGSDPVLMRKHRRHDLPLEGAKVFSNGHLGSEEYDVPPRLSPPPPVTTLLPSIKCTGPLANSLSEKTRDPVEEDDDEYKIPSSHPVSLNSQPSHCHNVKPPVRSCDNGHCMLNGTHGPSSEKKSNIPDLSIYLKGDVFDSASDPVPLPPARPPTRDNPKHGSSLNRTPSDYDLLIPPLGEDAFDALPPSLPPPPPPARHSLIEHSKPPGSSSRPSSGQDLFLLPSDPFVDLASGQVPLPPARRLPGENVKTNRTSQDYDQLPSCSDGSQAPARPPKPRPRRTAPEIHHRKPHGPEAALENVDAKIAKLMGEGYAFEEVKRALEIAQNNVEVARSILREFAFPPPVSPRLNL

`CO[C@@H](C)CNCc1cc(C(=O)Nc2cc(-c3ccc(OC(F)F)cc3C(=O)N3CC(F)C3)cc(OC(C)C)n2)c(=O)n(C2CC2)c1` [Example 252] displayed a concentration for half-maximal inhibition (IC50) of under 100 nM. `CO[C@@H](C)CNCc1cc(C(=O)Nc2cc(-c3ccc(Cl)cc3C(=O)N3CC(F)C3)cc(OC(C)C)n2)c(=O)n(C2CC2)c1` [Example 253] registered an IC50 of under 100 nM. The same measure for `COc1ccc(-c2cc(NC(=O)c3cc(CN[C@@H](C)C4CCC4)cn(C4CC4)c3=O)nc(OC(C)C)c2)c(C(=O)N2CC(F)C2)c1` [Example 254]: under 100 nM; for `CCOc1cc(-c2ccc(Cl)cc2C(=O)N2CC(F)C2)cc(NC(=O)c2cc(CNC[C@H](C)OC)cn(C3CC3)c2=O)n1` [Example 255]: under 100 nM; for `CC(C)Oc1cc(-c2ccc(Cl)cc2C(=O)N2CC(F)C2)cc(NC(=O)c2cc(CN[C@@H](C)C3CCC3)cn(C3CC3)c2=O)n1` [Example 256]: under 100 nM. In the case of `CCOc1cc(-c2ccc(OC(F)F)cc2C(=O)N2CC(F)C2)cc(NC(=O)c2cc(CN[C@@H](C)C3CCC3)cn(C)c2=O)n1` [Example 257], the IC50 is under 100 nM. `CO[C@@H](C)CNCc1cc(C(=O)Nc2cc(-c3ccc(Cl)cc3C(=O)N3CC(F)C3)cc(NC(C)C)n2)c(=O)n(C2CC2)c1` [Example 258] gave an IC50 of under 100 nM. `CO[C@@H](C)[C@H](C)NCc1cc(C(=O)Nc2cc(-c3ccc(Cl)cc3C(=O)N3CC(F)C3)cc(OC(C)C)n2)c(=O)n(C2CC2)c1` [Example 259] returned an IC50 of under 100 nM. The molecule `COc1ccc(-c2cc(NC(=O)c3cc(CN[C@@H](C)C4CCC4)cn(C4CC4)c3=O)nc(C3CC3)c2)c(C(=O)N2CC(F)C2)c1` [Example 260] came in with an IC50 of under 100 nM. Consider `COc1ccc(-c2cc(NC(=O)c3cc(CNC[C@H](C)OC)cn(C4CC4)c3=O)nc(OC(C)C)c2)c(C(=O)N2CC(F)C2)c1` [Example 261], for which the IC50 is under 100 nM.

In turn, `C[C@H](NCc1cc(C(=O)Nc2cc(-c3ccc(OC(F)F)cc3C(=O)N3CC(F)C3)cc(OC3CC3)n2)c(=O)n(C)c1)C1CCC1` [Example 262] showed an IC50 of under 100 nM.

`CO[C@@H](C)CNCc1cc(C(=O)Nc2cc(-c3ccc(OC(F)F)cc3C(=O)N3CC(F)C3)cc(OC(C)C)n2)c(=O)n(C)c1` [Example 263]: the 50% inhibitory concentration (IC50) was under 100 nM. The same measure for `CC(C)Oc1cc(-c2ccc(Cl)cc2C(=O)N2CC(F)C2)cc(NC(=O)c2cc(CN[C@@H](C)C3CC3)cn(C3CC3)c2=O)n1` [Example 264]: under 100 nM. In turn, `CO[C@@H](C)CNCc1cc(C(=O)Nc2cc(-c3ccc(C#N)cc3C(=O)N3CC(F)C3)cc(OC(C)C)n2)c(=O)n(C)c1` [Example 265] registered a half-inhibitory concentration (IC50) of under 100 nM. In turn, `CCOc1cc(-c2ccc(OC(F)F)cc2C(=O)N2CC(F)C2)cc(NC(=O)c2cc(CNC[C@@H]3CCCO3)cn(C3CC3)c2=O)n1` [Example 266] returned an IC50 of under 100 nM.

`CC(C)CNCc1cc(C(=O)Nc2cc(-c3ccc(OC(F)F)cc3C(=O)N3CC(F)C3)cc(OC(C)C)n2)c(=O)n(C2CC2)c1` [Example 267] yielded an IC50 of under 100 nM. `CCOc1cc(-c2ccc(OC(F)F)cc2C(=O)N2CC(F)C2)cc(NC(=O)c2cc(CNCC(C)C)cn(C3CC3)c2=O)n1` [Example 268] came in with a 50% inhibitory concentration (IC50) of under 100 nM. With `COc1ccc(-c2cc(NC(=O)c3cc(CN[C@@H](C)[C@H](C)OC)cn(C4CC4)c3=O)nc(C3CC3)c2)c(C(=O)N2CC(F)C2)c1` [Example 269] the figure was under 100 nM. For `COc1ccc(-c2cc(NC(=O)c3cc(CNC[C@H](C)OC)cn(C4CC4)c3=O)nc(C3CC3)c2)c(C(=O)N2CC(F)C2)c1` [Example 270], the IC50 was under 100 nM. The same measure for `CC(C)Oc1cc(-c2ccc(Cl)cc2C(=O)N2CC(F)C2)cc(NC(=O)c2cc(CNC[C@@H]3CCCO3)cn(C3CC3)c2=O)n1` [Example 271]: under 100 nM; for `CC(C)CNCc1cc(C(=O)Nc2cc(-c3ccc(C#N)cc3C(=O)N3CC(F)C3)cc(OC(C)C)n2)c(=O)n(C)c1` [Example 272]: under 100 nM; for `CO[C@@H](C)CNCc1cc(C(=O)Nc2cc(-c3ccc(C)cc3C(=O)N3CC(F)(F)C3)cc(C3CC3)n2)c(=O)n(C2CC2)c1` [Example 273]: under 100 nM. The molecule `COc1ccc(-c2cc(NC(=O)c3cc(CN[C@@H](C)C4CCC4)cn(C)c3=O)nc(OC(C)C)c2)c(C(=O)N2CC(F)C2)c1` [Example 274] yielded an IC50 of under 100 nM. `CCOc1cc(-c2ccc(OC(F)F)cc2C(=O)N2CC(F)C2)cc(NC(=O)c2cc(CNC[C@H](C)OC)cn(C)c2=O)n1` [Example 275] showed a concentration for half-maximal inhibition (IC50) of under 100 nM. With `COc1ccc(-c2cc(NC(=O)c3cc(CN[C@@H](C)C4CCC4)cn(C4CC4)c3=O)nc(OC(C)C)c2)c(C(=O)N2CC(F)(F)C2)c1` [Example 276] the figure was under 100 nM; with `Cc1ccc(-c2cc(NC(=O)c3cc(CN[C@@H](C)C4CCC4)cn(C4CC4)c3=O)nc(OC(C)C)c2)c(C(=O)N2CC(F)C2)c1` [Example 277], under 100 nM; with `CC(C)Nc1cc(-c2ccc(OC(F)F)cc2C(=O)N2CC(F)C2)cc(NC(=O)c2cc(CN[C@@H](C)C3CCC3)cn(C)c2=O)n1` [Example 278], under 100 nM. As for `CC(C)Oc1cc(-c2ccc(C#N)cc2C(=O)N2CC(F)C2)cc(NC(=O)c2cc(CNC[C@@H]3CCCO3)cn(C)c2=O)n1` [Example 279], the half-inhibitory concentration (IC50) is under 100 nM. The same measure for `CC(C)Oc1cc(-c2ccc(OC(F)F)cc2C(=O)N2CC(F)C2)cc(NC(=O)c2cc(CNC[C@@H]3CCCO3)cn(C3CC3)c2=O)n1` [Example 280]: under 100 nM; for `COc1ccc(-c2cc(NC(=O)c3cc(CNCC(C)C)cn(C4CC4)c3=O)nc(OC(C)C)c2)c(C(=O)N2CC(F)C2)c1` [Example 281]: under 100 nM. The same measure for `CCOc1cc(-c2ccc(OC(F)F)cc2C(=O)N2CC(F)C2)cc(NC(=O)c2cc(CNC[C@@H]3CCCO3)cn(C)c2=O)n1` [Example 282]: under 100 nM; for `COc1ccc(-c2cc(NC(=O)c3cc(CNC[C@@H]4CCCO4)cn(C4CC4)c3=O)nc(OC(C)C)c2)c(C(=O)N2CC(F)C2)c1` [Example 283]: under 100 nM.

The molecule `COc1ccc(-c2cc(NC(=O)c3cc(CNCC(C)C)cn(C4CC4)c3=O)nc(C3CC3)c2)c(C(=O)N2CC(F)C2)c1` [Example 284] registered an IC50 of under 100 nM. `COCCNCc1cc(C(=O)Nc2cc(-c3ccc(Cl)cc3C(=O)N3CC(F)C3)cc(C3CC3)n2)c(=O)n(C2CC2)c1` [Example 285] showed an IC50 of under 100 nM. The same measure for `CCOc1cc(-c2ccc(OC(F)F)cc2C(=O)N2CC(F)C2)cc(NC(=O)c2cc(CNCC(C)C)cn(C)c2=O)n1` [Example 286]: under 100 nM; for `Cc1ccc(-c2cc(NC(=O)c3cc(CNCC(C)C)cn(C4CC4)c3=O)nc(OC(C)C)c2)c(C(=O)N2CC(F)C2)c1` [Example 287]: under 100 nM; for `COc1ccc(-c2cc(NC(=O)c3cc(CNC[C@@H]4CCCO4)cn(C4CC4)c3=O)nc(C3CC3)c2)c(C(=O)N2CC(F)C2)c1` [Example 288]: under 100 nM.

On to `COc1ccc(-c2cc(NC(=O)c3cc(CNCC(C)C)cn(C4CC4)c3=O)nc(OC(C)C)c2)c(C(=O)N2CC(F)(F)C2)c1` [Example 289], for which the concentration for half-maximal inhibition (IC50) was under 100 nM. Regarding `CO[C@@H](C)CNCc1cc(C(=O)Nc2cc(-c3ccc(C)cc3C(=O)N3CC(F)C3)cc(OC(C)C)n2)c(=O)n(C2CC2)c1` [Example 290], the IC50 is under 100 nM.

As for `COc1ccc(-c2cc(NC(=O)c3cc(CN[C@@H](C)C4CC4)cn(C4CC4)c3=O)nc(C3CC3)c2)c(C(=O)N2CC(F)C2)c1` [Example 291], the IC50 was under 100 nM. The molecule `COc1ccc(-c2cc(NC(=O)c3cc(CN[C@@H](C)C4CCC4)cn(C)c3=O)nc(OC(C)C)c2)c(C(=O)N2CC(F)(F)C2)c1` [Example 292] registered an IC50 of under 100 nM. `CC(C)Oc1cc(-c2ccc(OC(F)F)cc2C(=O)N2CC(F)(F)C2)cc(NC(=O)c2cc(CN[C@@H](C)C(C)C)cn(C3CC3)c2=O)n1` [Example 293] had an IC50 of under 100 nM. The same measure for `CC(C)CNCc1cc(C(=O)Nc2cc(-c3ccc(OC(F)F)cc3C(=O)N3CC(F)C3)cc(OC(C)C)n2)c(=O)n(C)c1` [Example 294]: under 100 nM. Take `COc1ccc(-c2cc(NC(=O)c3cc(CN[C@@H](C)C4CCC4)cn(C4CC4)c3=O)nc(C3CC3)c2)c(C(=O)N2CC(F)(F)C2)c1` [Example 295]: the IC50 is under 100 nM.

For `COc1ccc(-c2cc(NC(=O)c3cc(CN[C@@H](C)C4CCC4)cn(C)c3=O)nc(C3CC3)c2)c(C(=O)N2CC(F)C2)c1` [Example 296], the half-inhibitory concentration (IC50) was under 100 nM. The same measure for `CC(C)Oc1cc(-c2ccc(OC(F)F)cc2C(=O)N2CC(F)C2)cc(NC(=O)c2cc(CNC[C@@H]3CCCO3)cn(C)c2=O)n1` [Example 297]: under 100 nM; for `COCCNCc1cc(C(=O)Nc2cc(-c3ccc(Cl)cc3C(=O)N3CCC3)cc(C3CC3)n2)c(=O)n(C2CC2)c1` [Example 298]: under 100 nM.

In turn, `CC(C)Nc1cc(-c2ccc(OC(F)F)cc2C(=O)N2CC(F)C2)cc(NC(=O)c2cc(CNC[C@@H]3CCCO3)cn(C)c2=O)n1` [Example 299] came in with a 50% inhibitory concentration (IC50) of under 100 nM.

With `CO[C@@H](C)CNCc1cc(C(=O)Nc2cc(-c3ccc(C(F)F)cc3C(=O)N3CC(F)(F)C3)cc(C3CC3)n2)c(=O)n(C2CC2)c1` [Example 300], the IC50 was under 100 nM. With `COc1ccc(-c2cc(NC(=O)c3cc(CNC[C@H](C)OC)cn(C)c3=O)nc(C3CC3)c2)c(C(=O)N2CC(F)C2)c1` [Example 301] the figure was under 100 nM. With `COc1ccc(-c2cc(NC(=O)c3cc(CNC[C@H](C)OC)cn(C)c3=O)nc(OC(C)C)c2)c(C(=O)N2CC(F)C2)c1` [Example 302] the figure was under 100 nM; with `COCCNCc1cc(C(=O)Nc2cc(-c3ccc(Cl)cc3C(=O)N3CC(C#N)C3)cc(C3CC3)n2)c(=O)n(C2CC2)c1` [Example 303], under 100 nM. `Cc1ccc(-c2cc(NC(=O)c3cc(CNC[C@@H]4CCCO4)cn(C4CC4)c3=O)nc(C3CC3)c2)c(C(=O)N2CC(F)(F)C2)c1` [Example 304] gave a 50% inhibitory concentration (IC50) of under 100 nM.
